Laboratory results reported in publication PMC3921447, “Homologous and heterologous desensitization of guanylyl cyclase-B signaling in GH3 somatolactotropes” (Cell and Tissue Research, 2013).

Target: T1, GC-A (Rattus norvegicus, UniProt P18910)
T1 construct: Evidence of homologous desensitization of endogenous GC-A- and GC-B-mediated signaling in GH3 cells; endogenous in cells; host or cells: GH3 rat somatolactotrope cells
T1 sequence (P18910 29-1057): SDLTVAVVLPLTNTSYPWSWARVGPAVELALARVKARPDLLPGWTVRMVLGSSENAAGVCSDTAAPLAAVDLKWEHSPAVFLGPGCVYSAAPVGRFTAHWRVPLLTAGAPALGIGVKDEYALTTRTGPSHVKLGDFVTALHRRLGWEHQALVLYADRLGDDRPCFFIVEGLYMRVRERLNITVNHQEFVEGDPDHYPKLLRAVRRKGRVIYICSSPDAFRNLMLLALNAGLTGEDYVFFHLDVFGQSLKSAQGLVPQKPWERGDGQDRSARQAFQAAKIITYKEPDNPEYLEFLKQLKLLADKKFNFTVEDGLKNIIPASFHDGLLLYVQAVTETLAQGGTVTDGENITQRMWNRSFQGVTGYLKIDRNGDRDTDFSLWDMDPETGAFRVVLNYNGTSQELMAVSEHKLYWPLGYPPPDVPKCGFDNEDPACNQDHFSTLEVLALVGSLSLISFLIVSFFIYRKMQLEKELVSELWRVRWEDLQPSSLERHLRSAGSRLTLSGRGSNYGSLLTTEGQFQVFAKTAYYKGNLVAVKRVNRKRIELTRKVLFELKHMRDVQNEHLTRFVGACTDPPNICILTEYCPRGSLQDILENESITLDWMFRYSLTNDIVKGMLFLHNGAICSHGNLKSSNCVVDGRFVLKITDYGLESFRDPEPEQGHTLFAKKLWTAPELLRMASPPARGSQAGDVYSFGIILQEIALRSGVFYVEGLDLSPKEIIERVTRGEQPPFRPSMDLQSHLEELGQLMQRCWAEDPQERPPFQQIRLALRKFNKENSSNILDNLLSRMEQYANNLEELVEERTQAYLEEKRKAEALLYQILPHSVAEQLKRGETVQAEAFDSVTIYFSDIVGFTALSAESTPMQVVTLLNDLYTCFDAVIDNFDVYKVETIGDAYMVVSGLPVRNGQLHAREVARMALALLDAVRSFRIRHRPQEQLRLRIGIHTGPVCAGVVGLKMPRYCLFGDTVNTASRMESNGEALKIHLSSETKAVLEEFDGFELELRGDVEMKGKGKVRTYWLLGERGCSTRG
Experiment: Effect of natriuretic peptide pre-treatment on ANP-stimulated (GC-A) cGMP accumulation in GH3 cells
Assay type: cell-based
Conditions: 100 nM CNP pre-treatment 6 h, then 100 nM ANP plus 1 mM IBMX 15 min; Fig. 3d; ns, P > 0.05
Procedure: Having established that GC-B signaling but not that of GC-A receptors, underwent rapid homologous desensitization, we next examined the effect of prolonged exposure of each receptor to its specific ligand. GH3 cells pre-treated with either ANP or CNP for 0 (control) to 6 h reduced the response to a subsequent 15-min treatment of ANP or CNP (with IBMX). […] The amount of cGMP measured from the 15-min pre-treatment sample was reduced by 39.6 ± 0.002 % (***P < 0.001). This effect was maintained up to the 6-h pre-treatment with CNP, which was reduced by 37.9 ± 7.1 % compared with the control (***P < 0.001).
Fig. 3 Effect of chronic exposure to CNP and ANP on GC-B- and GC-A-dependent cGMP accumulation in GH3 cells. Cells were initially treated with (a) 100 nM CNP or (b) 100 nM ANP in PSS without IBMX for 0 to 6 h. The medium was removed and replaced with 100 nM CNP (a) or 100 nM ANP (b) for 15 min in the presence of 1 mM IBMX. […]
In similar experiments designed to examine the effect of ANP pre-exposure to GC-A activity, a significant reduction in cGMP accumulation was observed within 30 min of ANP pre-treatment (by 28.9 ± 3.1 % compared with the control, *P < 0.05). […] In order to test the receptor specificity of the observed down-regulation of GC-B upon pre-treatment with CNP and of GC-A upon pre-treatment with ANP, the effects of ANP on GC-B and CNP on GC-A desensitization were determined. […]

CC[C@H](C)[C@@H]1NC(=O)[C@H](CCCNC(=N)N)NC(=O)[C@H](CC(=O)O)NC(=O)[C@H](CC(C)C)NC(=O)[C@H](CCCCN)NC(=O)[C@H](CC(C)C)NC(=O)CNC(=O)[C@H](Cc2ccccc2)NC(=O)[C@@H](NC(=O)CNC(=O)[C@H](CCCCN)NC(=O)[C@H](CO)NC(=O)[C@H](CC(C)C)NC(=O)CN)CSSC[C@@H](C(=O)O)NC(=O)CNC(=O)[C@H](CC(C)C)NC(=O)CNC(=O)[C@H](CO)NC(=O)[C@H](CCSC)NC(=O)[C@H](CO)NC(=O)CNC1=O [CNP, C-type natriuretic peptide]
ANP-stimulated cGMP after CNP pre-treatment vs control: not significantly different from the control samples
